# Results reported in patent US20110052688A1, “SOLID DISPERSION COMPOSITION” (priority 2006, published 2011).
# Experiment: Solubility of fluvastatin sodium in solvents
# Assay type: physicochemical
# Details: in water, alcohols and acetone
# Description: In one aspect, the solvent-based process uses a solvent, such as water, non-organic solvents, and organic solvents, to dissolve and intimately disperse or dissolve the drug and the one or more pharmaceutical acceptable polymers. The solvent is later removed by evaporation or other ways while the drug/polymer solid dispersion is collected into a solid dosage form. The use of organic solvents may generate hazardous and toxic wastes to the environment. If possible, water is used for water soluble drugs to prepare a dispersion. Other suitable solvents may be, for example, alcohols and acetone for the use of water-insoluble polymers.
compound,measurement,value
"CC(C)n1c(/C=C/C(O)CC(O)CC(=O)O)c(-c2ccc(F)cc2)c2ccccc21 (stereo not drawn) [fluvastatin sodium, [R*,S*-(E)]=(±)-7-[3-(4-fluorophenyl)-1-(1-methylethyl)-1Hindol-2-yl]-3,5-dihydroxy-6-heptenoic acid]",Solubility,soluble
